Laboratory results published in patent US20080187572A1, “Matrix Metalloproteinase Inhibitors of Tgfb-Induced Subcapsular Cataract Formation” (McMaster University, priority 2005, published 2008).
“Also recorded” adds a separate entry of the source.

Assays:
MMP-9 = assay: Western blot of conditioned media for MMP-9 with densitometry; assay type: cell-based, rat; conditions: for MMP-9 protein in conditioned media (western blot, densitometry), FIG. 5B,C: co-treated with TGFβ 2 ng/ml, compared with TGFβ alone
Procedure: Equal volumes of sample were electrophoresed on a 10% SDS-polyacrylamide gel. The resolved bands were electro-transferred onto a nitrocellulose membrane (Pall Corporation). Membranes were blocked with 5% skimmed milk powder in Tris-buffered saline (50 mM Tris base, NaCl pH 8.5) and 0.1% Tween-20 and then incubated overnight at 4° C. with a polyclonal antibody generated against MMP-9 (1:500; Chemicon International) or MMP-2 (1:500:Chemicon International) or E-adherin (1:1500; ED Transduction Laboratories).
Following this incubation, membranes were probed with an HRP-conjugated secondary antibody (1:7500;Amersham Biosciences) and ECL detection reagents (Amersham Biosciences). The western blots were scanned by a densitometer and analyzed by image quantification software (ImageJ, NIH, USA). The relative density versus control ratio (RD/C) was estimated using Graph Pad Prism Program (GraphPad). Quantitative data were analyzed statistically using a student's t-test and expressed as ± standard deviation. A value of p<0.05 was considered significant.
The western blot data for MMP-9 from three separate experiments were analyzed by densitometry and the results are shown in FIG. 5C. Values are expressed as the Relative Density versus control ratio (RD/C)± standard deviation of 3 blots.

[1] = system: TGFβ-induced subcapsular cataract formation; assay: Subcapsular plaque/opacity formation in cultured rat lenses (photography); assay type: cell-based; conditions: 6 days
Procedure: The previously established TGFβ-induced rat lens model was utilized for these studies. Briefly, lenses were obtained from adult male Wistar rats and cultured in 3.5 ml of serum free M199 medium supplemented with 50 IU/ml penicillin, 50 μg/ml streptomycin and 2.5 μg/ml fungizone (Amersham Biosciences) overnight. […] Some lenses were co-treated with TGFβ2 and the […], GM6001 (liomastat) (Chemicon International) at concentrations ranging from 10 to 25 μM or the MMP-2-9 inhibitor ((2R)-[(4-Biphenylylsulfonyl)amino]-N-hydroxyl-3-phenylpropionamide) (Chemicon) concentrations of either 10 and 25 μM. The GM6001 negative control (N-t-Butoxycarbonyl-L-leucyl-L-tryptophan Methylamide) (Calbiochem) (25 μM) was also employed. Lenses were then harvested at subsequent time-points of 2, 4 or 6 days and then photographed using a digital camera mounted to a dissecting scope. The lenses were then fixed for histology and immunofluorescence, or used for optical analysis. The conditioned media was also collected from each treatment group for zymography and western blot analysis.
The MMP inhibitor GM6001 was employed in the rat subcapsular cataract model in order to determine whether it could effectively suppress TGFβ-induced subcapsular cataract formation. To carry out these experiments, excised rat lenses were treated with exogenous TGFβ for a period of 6 days. […]

[2] = system: MMPs with gelatinolytic activity (MMP-2, MMP-9); assay: Gelatin zymography of lens conditioned media; assay type: cell-based, rat; conditions: co-treated with TGFβ, 6 day time point, relative to TGFβ treated lenses
Procedure: An equal volume of each concentrate was electrophoresed on 10% SDS-polyacrylamide gels containing either 1 mg/ml gelatin or 2% beta-casein at a final concentration of 0.1% as the substrate. Following electrophoresis the gels were developed as described previously and stained in 0.5% coomassie brilliant blue for 1 hr followed by destaining with 10% iso-propanol. Sites of gelatinase or caseinase activity were detected as clear bands against a background of uniform staining, which was digitally photographed.
To examine the timing and level of induction of MMPs In subcapsular cataract formation zymography was performed on conditioned media of lenses from three different treatment groups (control, TGFβ, TGFβ plus GM6001 (25 μM)) and TGFβ plus MMPI-2/9 at the 6 day time point.

[3] = system: TGFβ-induced rat lens cataract; assay: Optical analysis (BVD error) in ex-vivo TGFβ-induced rat lens cataract model
E-cadherin mRNA = E-cadherin mRNA in lens epithelium by LCM and RT-QPCR; assay type: cell-based, rat; conditions: 6 day treatment; for E-cadherin mRNA level in lens epithelium versus TGFβ alone, FIG. 6B / E-cadherin mRNA level in lens epithelium versus controls, FIG. 6B: co-treated with TGFβ
Procedure: E-cadherin mRNA expression in the rat lens epithelial region was determined for lenses from different treatment groups, TGF-β, TGF-β plus GM6001 (25 μM), TGF-β plus MMPI-2/9 or control (6 day treatment time), using Real time quantitative PCR, (RT-QPCR). For these experiments, cryostat sections of lenses were subjected to Laser Capture Microdissection (LCM) in order to specifically isolate the cells. LCM was used to further ensure that cells of the subcapsular plaques were obtained and not left adherent to the underlying fiber cell mass, which may have occurred with manual dissection. Following treatment, lenses were placed in a cryostat mould containing Tissue-Tek OCT (Sakura Finetek Torrance, Calif.), and frozen on dry ice then stored at −70° C. The frozen tissue was then sectioned at 5-8 μm in a cryostat, mounted on non-coated clean glass slides, and stored again at −70° C. Immediately before Laser Capture Microdissection (LCM), the frozen sections were thawed for 10 seconds and then stained with HistoGene™LCM Frozen Section Staining kit (Arcturus, Mountain View, Calif.) using the protocol provided with strict adherence to RNAse-free conditions. The slides were then dried for 5 minutes after which LCM of the tissue was completed within two hours. LCM was then performed using the PixCell II (Arcturus), as described by others. The HistoGene stain allowed for the identification of the general morphology of the epithelium. Cells from the epithelium of the lens were then captured on CapSure Macro LCM Caps (Arcturus) using the PixCell II LCM Microscope (Arcturus) with a minimal beam diameter of 7.5 μrm. Total cellular RNA was then extracted from lifted cells using a PicoPure™ RNA Isolation kit (Arcturus Engineering Inc). Purified RNA was analyzed both qualitatively and quantitatively using an Agilent 2100 Bioanalyser (Agilent Technologies, Foster City, Calif., USA). Standard 20 μl reverse transcription reactions were preformed (SuperScript II, Life Technologies). The quality of the recovered cDNA was measured using a microfluidic gel analyzer (Agilent Technologies). E-Cadherin gene expression from recovered cDNA was analyzed using RT-PCR using a 96 well TaqMan optical reaction plate format on an ABI Prism 7700 sequence detection system (Applied Biosystems, Foster City, Calif., USA). RNA was normalized to 18S for each reaction. Each 25 μl PCR reaction (including controls) contained TaqMan Universal master mix, gene-specific forward and reverse primers (Mobix, Hamilton), and probes for target and endogenous control genes (Applied Biosystems). Serial dilutions (1-5 fold) of standard samples were set up in separate wells in duplicate, for both 18S and E-cadherin gene targets. Standard and unknown samples were added in a volume of 5 μl. Thermal cycling parameters consisted of the following: 2 minutes at 50° C., 10 minutes at 95° C. followed by 40 cycles of 15 seconds at 95° C. and 1 minute at 60° C. The number of target gene copies was calculated from a standard curve generated in parallel with each batch of samples. A linear relationship was detected over at least five orders of magnitude. In all experiments, the correlation coefficient was between 0.997 and 0.986. […] All PCR for E-cadherin cDNA quantification were performed using standard cDNA dilution curves. Quantitative data were analyzed statistically using a student's t-test and expressed as ±standard deviation. […]

E-cadherin fragment = assay: E-cadherin shedding, western blot of conditioned media; assay type: cell-based, rat; conditions: co-cultured with TGFβ, 6 day treatment
Procedure: (§1) To confirm the identity of the specific MMPs corresponding to the gelatinolytic bands in the zymograms and quantitate their levels over the 6 day time period, concentrated conditioned media from the treatment groups, control, TGFβ, TGFβ plus GM6001 (25 μM) and TGFβ plus MMPI-2/9, from three treatment times days 2, 4 and […], was subjected to western blot analysis using antibodies specific for both MMP-2 and MMP-9. Equal volumes of sample were electrophoresed on a 10% SDS-polyacrylamide gel. The resolved bands were electro-transferred onto a nitrocellulose membrane (Pall Corporation). Membranes were blocked with 5% skimmed milk powder in Tris-buffered saline (50 mM Tris base, NaCl pH 8.5) and 0.1% Tween-20 and then incubated overnight at 4° C. with a polyclonal antibody generated against MMP-9 (1:500; Chemicon International) or MMP-2 (1:500:Chemicon International) or E-adherin (1:1500; ED Transduction Laboratories).
To determine whether TGFβ treatment of the rat lens results in an induction of E-cadherin shedding and whether this can be modulated by MMPIs, previously concentrated conditioned media was obtained from the 6 day treatment groups outlined earlier, and subjected to western blot analyses using an antibody specific for extracellular domain of E-cadherin, and used in previous studies to detect the presence of soluble E-cadherin fragments. […]

MMP-2 = assay: Western blot of conditioned media for MMP-2; assay type: cell-based, rat; conditions: co-cultured with TGFβ
Procedure: as §1
Following this incubation, membranes were probed with an HRP-conjugated secondary antibody (1:7500;Amersham Biosciences) and ECL detection reagents (Amersham Biosciences). The western blots were scanned by a densitometer and analyzed by image quantification software (ImageJ, NIH, USA). […] Quantitative data were analyzed statistically using a student's t-test and expressed as ± standard deviation. […]

[4] = system: alpha smooth muscle actin (α-SMA); assay: Immunofluorescent localization of αSMA in lens cross-sections; assay type: cell-based, rat; conditions: co-cultured with TGFβ 2 ng/ml, 6 days
Procedure: Lenses were collected from different treatment groups and fixed overnight in 1:99 acetic acid: ethanol solution, dehydrated, embedded in paraffin, and processed for routine histology. For histological analysis, 5 μm sections were stained with hematoxylin and eosin. Immunofluorescence was performed on 5 μm thick paraffin-embedded sections. Sections were incubated with primary antibody specific for alpha smooth muscle actin (α-SMA, 1:100, Sigma) and bound primary antibodies were visualized with a fluorescein-isothiocyanate (FITC) anti-mouse secondary antibody, (1:50, Jackson ImmunoResearch Laboratories). All sections were mounted in Vectasheild mounting medium with 4′,6-Diaminodino-2-Phenylindol (DAPI, Vector Laboratories) to visualize the nuclei.
To carry out these experiments, excised rat lenses were treated with exogenous TGFβ for a period of 6 days. An untreated control lens (A), a lens treated with TGF-β (2 ng/mL) (B), a lens co-cultured with TGFβ (2 ng/mL) and GM6001 (25 μM) (C) and a lens co-cultured with TGF-β and MMPI-2/9 (2 umol/L) (D) are shown following 6 days of culture.

[5] = TGFβ 2 ng/ml plus 25 μM test substance, 6 days

Molecule: CNC(=O)[C@H](Cc1c[nH]c2ccccc12)NC(=O)[C@@H](CC(=O)NO)CC(C)C [GM6001]
- MMP-9 protein in conditioned media (western blot, densitometry), FIG. 5B,C (MMP-9): significant reduction (**P<0.001); also recorded: significantly attenuated
- Subcapsular plaques / opacities, FIG. 4 ([1]; co-cultured with TGFβ 2 ng/mL, 25 μM): remained devoid of opacities
- Levels of gelatinolytic bands in conditioned media, FIG. 5A [2]: reduced levels of all gelationolytic bands
- BVD error versus control lenses, FIG. 3 ([3]; TGFβ 2 ng/ml plus 10 μM test substance, 6 days): significantly different from control lenses
- BVD error versus control lenses, FIG. 3 ([3]; TGFβ 2 ng/ml plus 15 μM test substance, 6 days): significantly different from control lenses
- BVD error versus control lenses, FIG. 3 ([3]; TGFβ 2 ng/ml plus 20 μM test substance, 6 days): not significantly different from the control lenses
- BVD error versus control lenses, FIG. 3 [3, 5]: not significantly different from the control lenses
- Dosage effect on TGFβ-induced BVD error ([3]; TGFβ 2 ng/ml plus 10, 15, 20, 25 μM, 6 days): decrease in BVD error as the GM6001 concentration increases to 25 μM
- BVD error (back vertex variability), FIG. 2 ([3]; day 6, lenses co-treated with TGF-β and GM6001, compared with TGF-β treated groups): both the TGF-β treated groups of lenses exhibited a significantly larger BVD error than the control group or the GM6001 co-treated lenses
- E-cadherin mRNA level in lens epithelium versus TGFβ alone, FIG. 6B (E-cadherin mRNA): significantly higher than those treated with TGFβ alone
- E-cadherin mRNA level in lens epithelium versus controls, FIG. 6B (E-cadherin mRNA): significantly higher than that of controls
- E-cadherin fragment in conditioned media, FIG. 6A (E-cadherin fragment): Suppression in the levels of the E-adherin fragment
- MMP-2 protein in conditioned media (western blot), FIG. 5B (MMP-2): undetectable levels, similar to controls
- αSMA immunoreactivity in lens sections, FIG. 4 ([4]; 25 μM): no observable immunoreactivity to αSMA

Molecule: O=C(NO)[C@@H](Cc1ccccc1)NS(=O)(=O)c1ccc(-c2ccccc2)cc1 [MMPI-2/9, (2R)-[(4-Biphenylylsulfonyl)amino]-N-hydroxyl-3-phenylpropionamide]
- MMP-9 protein in conditioned media (western blot, densitometry), FIG. 5B,C (MMP-9): significant attenuation of MMP-9
- Subcapsular plaques / opacities, FIG. 4 ([1]; co-cultured with TGF-β): remained devoid of opacities
- Levels of gelatinolytic bands in conditioned media, FIG. 5A [2]: reduced levels of all gelationolytic bands
- E-cadherin mRNA level in lens epithelium versus TGFβ alone, FIG. 6B (E-cadherin mRNA): significantly higher than those treated with TGFβ alone
- E-cadherin mRNA level in lens epithelium versus controls, FIG. 6B (E-cadherin mRNA): significantly higher than that of controls
- E-cadherin fragment in conditioned media, FIG. 6A (E-cadherin fragment): undetectable
- MMP-2 protein in conditioned media (western blot), FIG. 5B (MMP-2): undetectable levels, similar to controls
- αSMA immunoreactivity in lens sections, FIG. 4 ([4]; inhibitor): no observable immunoreactivity to αSMA

Molecule: CNC(=O)[C@H](Cc1c[nH]c2ccccc12)NC(=O)[C@H](CC(C)C)NC(=O)OC(C)(C)C [negative control for GM6001, N-t-Butoxycarbonyl-L-leucyl-L-tryptophan Methylamide]
- BVD error versus control lenses, FIG. 3 [3, 5]: significantly different from the controls

B1: TGFβ: TGFβ2 (R&D Systems), growth factor used to induce subcapsular cataract in cultured rat lenses (protein, UniProt P61812 303-414, looked up)
Transforming growth factor …: ALDAAYCFRNVQDNCCLRPLYIDFKRDLGWKWIHEPKGYNANFCAGACPYLWSSDTQHSRVLSLYNTINPEASASPCCVSQDLEPLTILYYIGKTPKIEQLSNMIVKSCKCS
- MMP-9 in conditioned media versus control, FIG. 5C (MMP-9; TGFβ 2 ng/ml alone): significant upregulation (*P<0.001)
- BVD error versus controls ([3]; TGFβ alone, 6 days): statistically greater than in controls
- Suppression of E-cadherin mRNA in plaque tissue versus normal lens epithelium (E-cadherin mRNA; TGFβ alone): ~4 fold
